Source: patent publication US8039481B2, “Tetrahydrofuran derivatives for use as inhibitors of matrix metalloproteinases” (Sanofi-Aventis, priority 2005, dated 2011)

Experiments:
Type in all cases: biochemical
[1] = biological target: T1, catalytic domain of human stromelysin (MMP-3) (Homo sapiens, UniProt P08254); assay: Enzymatic activity of the catalytic domain of human stromelysin (MMP-3), fluorogenic substrate
T1 construct: Preparation and determination of the enzymatic activity of the catalytic domain of human stromelysin (MMP-3); made in house
Method: (§1) Preparation and determination of the enzymatic activity of the catalytic domain of human stromelysin (MMP-3) and of neutrophil collagenase (MMP-8). The two enzymes stromelysin (MMP-3) and neutrophil collagenase (MMP-8) were prepared by the method of Ye et al. (Biochemistry; 31 (1992) pages 11 231-11 235). The enzymic activity or the effect of the enzyme inhibitor was measured by incubating 10 μl of enzyme solution with 10 μl of a 3% strength (v/v) buffered dimethyl sulfoxide solution which contained the enzyme inhibitor where appropriate, for 15 minutes. After addition of 10 μl of a 3% strength (v/v) aqueous dimethyl sulfoxide solution which contained 1 mmol/l of the substrate, the enzymic reaction was followed by fluorescence spectroscopy (328 nm (ex)/393 nm(em)).
(§2) The enzymic activity is presented as increase in extinction/minute. The IC50 values listed in Table 2 were determined as the inhibitor concentrations leading in each case to 50% inhibition of the enzyme.
(§3) The buffer solution contained 0.05% Brij (Sigma, Deisenhofen, Germany) and 0.1 mol/l Tris/HCl, 0.1 mol/l NaCl, 0.01 mol/l CaCl2 and 0.1 mol/l piperazine-N,N′-bis[2-ethanesulfonic acid] (pH=7.5).
(§4) The MMP-3 enzyme solution contained 2.3 μg/ml and the MMP-8 enzyme solution 0.6 μg/ml of one of the enzyme domains prepared by the method of Ye et al. The substrate solution contained 1 mmol/l of the fluorogenic substrate (7-methoxycoumarin-4-yl)acetyl-Pro-Leu-Gly-Leu-3-(2′,4′-dinitrophenyl)-L-2,3-diaminopropionyl-Ala-Arg-NH2 (Bachem, Heidelberg, Germany).

[2] = biological target: catalytic domain of human gelatinase-A (MMP-9) (Homo sapiens, UniProt P14780); assay: Enzymatic activity of the catalytic domain of human gelatinase-A (MMP-9), fluorogenic substrate
Method: Determination of the Enzymatic Activity of the Catalytic Domain of Human Gelatinase-A (MMP-9)
Activation of the proenzyme:
(§5) 2 parts by volume of proenzyme were incubated with 1 part by volume of APMA solution at 37° C. for 4 hours. The APMA solution was prepared from a 10 mmol/l p-aminophenylmercuric acetate solution in 0.1 mmol/l NaOH by dilution with 3 parts by volume of Tris/HCl buffer pH 7.5 (see below). The pH was adjusted to between 7.0 and 7.5 by adding 1 mmol/l HCl. After activation of the enzyme it was diluted with the Tris/HCl buffer to a concentration of 4.2 mU/ml.
(§6) The enzymic activity was measured by incubating 10 μl of enzyme solution with 10 μl of a 3% strength (v/v) buffered dimethyl sulfoxide solution (reaction 1) for 15 minutes. The enzyme inhibitor activity was measured by incubating 10 μl of enzyme solution with 10 μl of a 3% strength (v/v) buffered dimethyl sulfoxide solution which contained the enzyme inhibitor (reaction 2).
The enzymic reaction both in the case of reaction 1 and in the case of reaction 2 was followed after addition of 10 μl of a 3% strength (v/v) aqueous dimethyl sulfoxide solution which contained 0.15 mmol/l of the substrate by fluorescence spectroscopy (328 nm (extinction)/393 nm (emission)).
The enzymic activity has been presented as increase in extinction/minute.
The effect of the inhibitor was calculated as percentage inhibition by the following formula: % inhibition=100−[(increase in extinction/minute in reaction 2)/(increase in extinction/minute in reaction 1)×100].
(§7) The IC50, which is the concentration of inhibitor which is necessary for 50% inhibition of the enzymic activity, was determined graphically by plotting the percentage inhibitions at various inhibitor concentrations.
(§8) The buffer solution contained 0.05% Brij (Sigma, Deisenhofen, Germany) and 0.1 mol/l Tris/HCl, 0.1 mol/l NaCl, 0.01 mol/l CaCl2 (pH=7.5). The enzyme solution contained 4.2 mU/ml of the enzyme domain. The substrate solution contained 0.15 mmol/l of the fluorogenic substrate (7-methoxycoumarin-4-yl)acetyl-Pro-Leu-Gly-Leu-3-(2′,4′-dinitrophenyl)-L-2,3-diaminopropionyl-Ala-Arg-NH2 (Bachem, Heidelberg, Germany).

[3] = biological target: catalytic domain of human gelatinase-A (MMP-2) (Homo sapiens, UniProt P08253); assay: Enzymatic activity of the catalytic domain of human gelatinase-A (MMP-2), fluorogenic substrate
Method: Determination of the Enzymatic Activity of the Catalytic Domain of Human Gelatinase-A (MMP-2)
as §5, with “Activation of the proenzyme: 2” for “2”, “0.5” for “4”, “0.83 μg/ml.” for “4.2 mU/ml.”
as §6
The enzymic reaction both in the case of reaction 1 and in the case of reaction 2 was followed after addition of 10 μl of a 3% strength (v/v) aqueous dimethyl sulfoxide solution which contained 0.3 mmol/l of the substrate by fluorescence spectroscopy (328 nm (extinction)/393 nm (emission)).
The enzymic activity has been presented as increase in extinction/minute. The effect of the inhibitor was calculated as percentage inhibition by the following formula: % inhibition=100−[(increase in extinction/minute in reaction 2)/(increase in extinction/minute in reaction 1)×100].
as §7
as §8, with “0.83 μg/ml” for “4.2 mU/ml”, “0.3” for “0.15”

[4] = biological target: T2, catalytic domain of neutrophil collagenase (MMP-8) (Homo sapiens, UniProt P22894); assay: Enzymatic activity of the catalytic domain of neutrophil collagenase (MMP-8), fluorogenic substrate
T2 construct: catalytic domain of human stromelysin (MMP-3) and of neutrophil collagenase (MMP-8); made in house
Method: as §1, §2, §3, §4

T1 sequence (P08254 100-272 limits assumed): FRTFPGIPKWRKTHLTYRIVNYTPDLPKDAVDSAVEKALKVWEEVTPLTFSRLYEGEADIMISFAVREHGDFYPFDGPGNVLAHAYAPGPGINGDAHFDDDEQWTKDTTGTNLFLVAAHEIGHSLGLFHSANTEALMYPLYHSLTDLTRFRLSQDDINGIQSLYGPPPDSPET
T2 sequence (P22894 100-262 limits assumed): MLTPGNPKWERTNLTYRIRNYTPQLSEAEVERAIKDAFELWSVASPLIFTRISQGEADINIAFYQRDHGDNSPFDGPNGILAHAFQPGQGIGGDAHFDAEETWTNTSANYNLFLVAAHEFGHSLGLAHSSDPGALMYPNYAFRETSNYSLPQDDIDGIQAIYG
Chain of catalytic domain of human gelatinase-A (MMP-9) (P14780 107-444 limits assumed): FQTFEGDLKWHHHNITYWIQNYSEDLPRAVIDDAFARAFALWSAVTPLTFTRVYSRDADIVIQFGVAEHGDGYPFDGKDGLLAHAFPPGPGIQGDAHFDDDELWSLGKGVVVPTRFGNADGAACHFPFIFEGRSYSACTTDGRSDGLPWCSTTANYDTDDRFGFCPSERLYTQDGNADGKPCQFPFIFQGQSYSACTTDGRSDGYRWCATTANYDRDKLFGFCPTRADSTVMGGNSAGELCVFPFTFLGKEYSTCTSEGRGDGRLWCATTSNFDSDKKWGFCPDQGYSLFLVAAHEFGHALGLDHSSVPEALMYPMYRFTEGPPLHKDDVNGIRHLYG
Chain of catalytic domain of human gelatinase-A (MMP-2) (P08253 110-465 limits assumed): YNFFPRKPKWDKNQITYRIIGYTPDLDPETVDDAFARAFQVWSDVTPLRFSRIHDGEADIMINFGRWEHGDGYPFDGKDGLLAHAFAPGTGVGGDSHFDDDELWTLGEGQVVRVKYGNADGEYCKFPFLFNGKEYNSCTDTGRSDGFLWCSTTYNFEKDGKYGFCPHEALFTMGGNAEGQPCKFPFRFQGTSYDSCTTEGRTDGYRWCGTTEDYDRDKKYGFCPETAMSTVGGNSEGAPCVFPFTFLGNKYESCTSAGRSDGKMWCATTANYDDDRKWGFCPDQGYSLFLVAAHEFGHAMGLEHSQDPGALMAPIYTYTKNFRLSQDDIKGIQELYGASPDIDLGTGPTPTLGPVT

Row | IC50 [1] [nM] | IC50 [2] [nM] | IC50 [3] [nM] | IC50 [4] [nM] | Structure (SMILES)
1 | > 10000 | 2500 | 440 | 410 | O=C(O)C1C2CCOC2CCN1S(=O)(=O)c1ccc(Oc2ccc(F)cc2)cc1 (centres unmarked) [Example 10, 5-[4-(4-fluorophenoxy)benzenesulfonyl]octahydrofuro[3,2-c]pyridine-4-carboxylic acid]
2 | 1100 | 120 | 71 | 170 | O=C(NO)[C@@H]1[C@@H]2CCO[C@@H]2CCN1S(=O)(=O)c1ccc(-c2ccc(Cl)cc2)cc1 [Example 9]
3 | 27 | 2 | 2 | 24 | O=C(NO)C1C2CCOC2CCN1S(=O)(=O)c1ccc(Oc2ccc(Cl)cc2)cc1 (centres unmarked) [Example 18, 5-[4-(4-chlorophenoxy)benzenesulfonyl]octahydrofuro[3,2-c]pyridine-4-(N-hydroxy)-carboxamide]
4 | 14 | 1.3 | 0.8 | 2 | O=C(NO)[C@H]1[C@H]2CCO[C@H]2CCN1S(=O)(=O)c1ccc(Oc2ccc(F)cc2)cc1 [Example 12]
5 | 1500 | 150 | 47 | 150 | O=C(NO)[C@@H]1[C@@H]2CCO[C@@H]2CCN1S(=O)(=O)c1ccc(Oc2ccc(F)cc2)cc1 [Example 13]
6 | 29 | 2.4 | 1.7 | 2.4 | O=C(NO)C1C2CCOC2CCN1S(=O)(=O)c1ccc(-c2ccc(Cl)cc2)cc1 (centres unmarked) [Example 7, 5-(4′-chlorobiphenyl-4-sulfonyl)octahydrofuro[3,2-c]pyridine-4-(N-hydroxy)-carboxamide]
7 | 3500 | 2200 | 38 | 54 | O=C(O)C1C2CCOC2CCN1S(=O)(=O)c1ccc(-c2ccc(Cl)cc2)cc1 (centres unmarked) [Example 6, 5-(4′-chlorobiphenyl-4-sulfonyl)octahydrofuro[3,2-c]pyridine-4-carboxylic acid]
8 | 13 | 1.5 | 0.8 | 1 | O=C(NO)[C@H]1[C@H]2CCO[C@H]2CCN1S(=O)(=O)c1ccc(-c2ccc(Cl)cc2)cc1 [Example 8]
9 | 34 | 3 | 2 | 6 | O=C(NO)C1C2CCOC2CCN1S(=O)(=O)c1ccc(Oc2ccc(F)cc2)cc1 (centres unmarked) [Example 11, 5-[4-(4-fluorophenoxy)benzenesulfonyl]octahydrofuro[3,2-c]pyridine-4-(N-hydroxy)-carboxamide]
10 | 17 | 8 | 1 | 2 | N#Cc1ccc(Oc2ccc(S(=O)(=O)N3CC[C@@H]4OCC[C@@H]4[C@@H]3C(=O)NO)cc2)cc1 [Example 21]
11 | 15 | 5 | 1 | 2 | CS(=O)(=O)c1ccc(Oc2ccc(S(=O)(=O)N3CC[C@@H]4OCC[C@@H]4[C@@H]3C(=O)NO)cc2)cc1 [Example 23]
